# Measurements reported in PMC8198181, “Evaluation of Substituted N-Phenylpiperazine Analogs as D3 vs. D2 Dopamine Receptor Subtype Selective Ligands” (Molecules, 2021).
# Test system: DBA/2J mice
# Experiment: DOI-dependent head twitch response inhibition
# Type: in vivo, mouse
# Conditions: male DBA/2J mice, 10 mg/kg i.p., DOI 5 mg/kg, 30 min
# From the text: First, we have previously published that D3 receptor selective compounds could attenuate a hallucinogen-dependent head twitch response (HTR) in male DBA/2J mice. […] Second, we previously reported that D3 vs. D2 dopamine receptor subtype selective ligands could attenuate L-dopa dependent abnormal involuntary movement (AIM) scores in unilaterally lesioned (hemiparkinsonian) male rats, which is a model for L-dopa-Induced Dyskinesia (LID).
# Upon arrival DBA/2J mice (Jackson Labs) were allowed to acclimate for at least one week prior to testing. Mice were housed at ≤4 animals per cage with unlimited access to food and fresh water. The protocol for the HTR assessment has been previously reported. […]
# However, a head twitch was defined as a rapid movement of the head, without the involvement of the front paws during grooming. […] At least two observers counted the number of head twitches by visual examination and the number of head twitches was recorded in 5-min cumulative intervals. […]
# The effect of Group was assessed using two-way analysis of variance (ANOVA) with Time as the repeated measure. The data was further analyzed at each time point with a one-way ANOVA with Group as the factor followed by planned individual comparisons between different groups using a single degree-of-freedom F test involving the error term from the overall ANOVA when the Time and Group interaction was significant. […]
smiles,measurement,value
O=C(NCCCCN1CCN(c2ccccc2F)CC1)c1ccc(-c2ccsc2)cc1 [Compound 6a],DOI-dependent head twitch response,attenuated the number of head twitches
